Measured values as given in patent publication US20220364989A1, “METHOD FOR MEASURING PHOTOTOXICITY OR PHOTOALLERGY AND REAGENT FOR USE THEREIN” (FUJIFILM Corporation, priority 2018, published 2022).
Read-outs that look alike come from different tables or passages of the source.

Experiments:
[1] = 24 h, 0.25 mmol/L, pH 8
[2] = 24 h, 0.25 mmol/L, pH 10.2
[3] = cited from earlier work
[4] = cited from earlier work; remark: listed apart in the source
[5] = NAC depletion under and without ultraviolet irradiation, HPLC with UV detection (281 nm); details: for NAC Depletion (%) without light irradiation: 25° C. 24 hours light-shielded; for NAC Depletion (%) without light irradiation / NAC Depletion (%) under light irradiation: test substance solution 1 mmol/L; for NAC Depletion (%) under light irradiation: 2,000 μW/cm^2 for 1 hour then 25° C. 23 hours
[6] = NAL depletion under and without ultraviolet irradiation, HPLC with UV detection (281 nm); details: for NAL Depletion (%) without light irradiation: 25° C. 24 hours light-shielded; for NAL Depletion (%) without light irradiation / NAL Depletion (%) under light irradiation: test substance solution 1 mmol/L; for NAL Depletion (%) under light irradiation: 2,000 μW/cm^2 for 1 hour then 25° C. 23 hours
[7] = Average score of NAC and NAL depletion and phototoxicity or photoallergy determination, UV detection; details: for Average score (%) under light irradiation / Average score (%) without light irradiation: average of NAC and NAL depletion
[8] = Average score of NAC and NAL depletion and phototoxicity or photoallergy determination, fluorescence detection; details: for Average score (%): without light irradiation
[9] = NAC depletion under and without ultraviolet irradiation, HPLC with fluorescence detection (284 nm excitation, 333 nm fluorescence); details: for NAC Depletion (%): without light irradiation
[10] = NAL depletion under and without ultraviolet irradiation, HPLC with fluorescence detection (284 nm excitation, 333 nm fluorescence); details: for NAL Depletion (%): without light irradiation
[11] = 24 h, 0.25 mmol/L, pH 8; remark: listed apart in the source
[12] = 24 h, 0.25 mmol/L, pH 10.2; remark: listed apart in the source
[13] = 24 h, 0.25 mmol/L
[14] = without light irradiation, single compound
[15] = average of NAC and NAL depletion
[16] = 25° C. 24 hours light-shielded, test substance solution 1 mmol/L
[17] = 2,000 μW/cm^2 for 1 hour then 25° C. 23 hours, test substance solution 1 mmol/L

Compound	Difference in depletion (under light irradiation - without light irradiation) NAC (%) [1] [%]	NAC Depletion (%) under light irradiation [1] [%]	NAC Depletion (%) without light irradiation [1] [%]	Difference in depletion (under light irradiation - without light irradiation) NAL (%) [2] [%]	NAL Depletion (%) under light irradiation [2] [%]	NAL Depletion (%) without light irradiation [2] [%]	In vivo photoallergy ([3]; reported in References 1 and 2)	In vivo phototoxicity ([4]; reported in References 1 to 3)	Difference in depletion (under light irradiation - without light irradiation) NAC (%) [5] [%]	NAC Depletion (%) without light irradiation [5] [%]	NAC Depletion (%) under light irradiation [5] [%]	NAL Depletion (%) without light irradiation [6] [%]	NAL Depletion (%) under light irradiation [6] [%]	Average score (%) without light irradiation [7] [%]	Difference in depletion (under light irradiation - without light irradiation) Average score (%) ([8]; single compound)	Average score (%) ([8]; single compound)	Difference in depletion (under light irradiation - without light irradiation) NAC (%) ([9]; single compound)	NAC Depletion (%) ([9]; single compound)	Difference in depletion (under light irradiation - without light irradiation) NAL (%) ([10]; single compound)	NAL Depletion (%) ([10]; single compound)	further results
CC(=O)c1ccc2ccccc2c1 [compound 37, Methyl β-naphthyl ketone]	99.4	100.0	0.6	6.9	8.4	1.5															
CCOc1ccc2c(C)cc(=O)oc2c1 [compound 29, 4-Methyl-7-ethoxycoumarin]	93.6	93.6	0.0	19.3	20.3	1.0	Positive														
CC(C)O [compound 47]							Negative	Negative	1.7	0.0	1.7	1.5	0.3	0.8	−0.1	0.3	−0.5	0.5	0.3	0.0	Difference in depletion (under light irradiation - without light irradiation) NAL (%) [6]: −1.2%; Difference in depletion (under light irradiation - without light irradiation) Average score (%) [7]: 0.2%; Average score (%) under light irradiation [7]: 1.0%
Nc1ccc(S(N)(=O)=O)cc1 [compound 27, Sulfanilamide]	25.5	26.1	0.6	−0.2	0.0	0.2	Positive														
Tetrachlorosalicylanilide [compound 12]							Positive	Positive		66.8	−200.9	4.2	82.1	35.5	60.4	31.5	39.4	58.0	81.5	5.0	Difference in depletion (under light irradiation - without light irradiation) NAL (%) [6]: 77.9%
CCO [compound 50]							Negative	Negative	0.4	0.0	0.4	1.3	0.0	0.6	−0.1	0.1	−0.3	0.3	0.0	0.0	Difference in depletion (under light irradiation - without light irradiation) NAL (%) [6]: −1.3%; Difference in depletion (under light irradiation - without light irradiation) Average score (%) [7]: −0.5%; Average score (%) under light irradiation [7]: 0.2%
CC1(C)SC2C(NC(=O)Cc3ccccc3)C(=O)N2C1C(=O)O (centres unmarked) [compound 44]							Negative	Negative	1.5	1.4	2.8	1.9	1.6	1.6	0.9	1.0	1.3	1.1	0.4	0.8	Difference in depletion (under light irradiation - without light irradiation) NAL (%) [6]: −0.2%; Difference in depletion (under light irradiation - without light irradiation) Average score (%) [7]: 0.6%; Average score (%) under light irradiation [7]: 2.2%
CCCCCCCCCCCCCCCCO [compound 49, Cetyl alcohol]	3.7	5.5	1.8	3.3	6.1	2.8	Negative	Negative													
Cc1ccc2oc(=O)ccc2c1 [compound 2, 6-Methylcoumarin]	95.8	96.3	0.5	5.5	5.7	0.2	Positive	Positive													
CCCCC(CC)COC(=O)c1ccc(N(C)C)cc1 (centres unmarked) [No. 19, 2-ethylhexyl p-dimethylaminobenzoate]																					NAC Depletion (%) [11]: 98.1%; NAL Depletion (%) [12]: 1.3%; In vivo phototoxicity ([4]; in vivo): Negative; In vivo photoallergy ([3]; in vivo): Positive
Oc1ccc(Cl)cc1Cc1cc(Cl)ccc1O [No. 21, Dichlorophen]																					NAC Depletion (%) [11]: 98.5%; NAL Depletion (%) [12]: 14.5%; Average score (%) [13]: 56.5%; In vivo photoallergy ([3]; in vivo): Positive
CC(CN1c2ccccc2Sc2ccccc21)N(C)C.Cl (racemic) [compound 14]							Positive	Positive	61.9	27.6	89.5	3.5	−438.6	15.6	41.5	12.2	76.4	23.6	6.6	0.8	
C[S+](C)[O-] [compound 58]							Negative	Negative													Difference in depletion (under light irradiation - without light irradiation) NAC (%) ([5]; single compound): 0.7%; NAC Depletion (%) [5, 14]: 0.0%; Difference in depletion (under light irradiation - without light irradiation) NAL (%) ([6]; single compound): −0.2%; NAL Depletion (%) [6, 14]: 0.2%; Difference in depletion (under light irradiation - without light irradiation) Average score (%) ([7]; single compound): 0.3%; Average score (%) [7, 14]: 0.1%; Difference in depletion (under light irradiation - without light irradiation) Average score (%) [8]: 0.1%; Average score (%) under light irradiation [8, 15]: 0.1%; Average score (%) without light irradiation [8, 15]: 0.0%; Difference in depletion (under light irradiation - without light irradiation) NAC (%) [9]: 0.1%; NAC Depletion (%) without light irradiation [9, 16]: 0.0%; NAC Depletion (%) under light irradiation [9, 17]: 0.2%; Difference in depletion (under light irradiation - without light irradiation) NAL (%) [10]: 0.0%; NAL Depletion (%) without light irradiation [10, 16]: 0.0%; NAL Depletion (%) under light irradiation [10, 17]: 0.0%
